Where “and” joins values, the source holds several entries; their conditions need not be identical. Equal values may be shown once. Read-outs that look alike come from different tables or passages of the source.
Key:
[1] = tested on: LPS-induced microglia activation; experiment: Image-based assay of LPS-induced microglia activation (HTS and dose response); format: cell-based, rat; settings: Rattus norvegicus, Microglia; for inhibition at 10 µM: primary microglia HTS, LPS stimulation, increased cell size (>800 μm^2) as marker of activation, read-out: LPS % inhibition
in vitro [2] = settings: rat, Cell Toxicity IC50 (uM) [cFib assay]
primary rat microglia [3] = experiment: Cell toxicity (dead cells, size <150 μm2) in coated fibrin (cFib) assay; settings: primary microglia HTS, fibrin stimulation; decreased size (<150 μm^2) as marker of toxicity;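 on Fibrin % cell toxicity: share of dead cells sized under 150 µm2 at 10 µM in fibrin-stimulated microglia HTS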
primary rat microglia [4] = experiment: Cell toxicity (dead cells, size <150 μm2) in LPS assay; settings: for LPS % cell toxicity: primary microglia HTS, LPS stimulation, decreased size (<150 μm^2) as marker of toxicity; for IC50: read-out: Cell Toxicity IC50 (uM) [LPS assay], LPS assay
in vitro [5] = settings: rat
[6] = tested on: fibrin-induced microglia activation; experiment: Image-based assay of fibrin-induced microglia activation (HTS and dose response); format: cell-based, rat; settings: for IC50 / inhibition at 10 µM: Rattus norvegicus, Microglia; for inhibition at 10 µM: primary microglia HTS, fibrin stimulation, increased cell size (>800 μm^2) as marker of activation, read-out: Fibrin % inhibition
[7] = tested on: fibrin- and LPS-induced microglia activation; experiment: cells; format: cell-based, rat; settings: for inhibition at 10 µM: Rattus norvegicus; for Activity: Table 7, fib = fibrin, LPS, tox = toxicity
[8] = 48 h, Table 1, dose response 0.001-20 μM, triplicates, primary rat microglia, 48 h, read-out: LPS IC50
[9] = LPS-induced microglia activation, dose response, read-out: LPS IC50 (uM) (Suppl. Table 7)
[10] = dose response, LPS-induced microglia activation, read-out: LPS IC50
[11] = 48 h, Table 1, dose response 0.001-20 μM, triplicates, primary rat microglia, 48 h, read-out: Fibrin IC50
[12] = dose response, fibrin-induced microglia activation, read-out: Fibrin IC50
[13] = fibrin-induced microglia activation, dose response, read-out: Fibrin IC50 (uM) (Suppl. Table 7)
[14] = HTS of 1907 compounds, quadrant by fibrin and LPS inhibition
[15] = Microglia, HTS hit classification, read-out: Hit
[16] = hit classification in microglia HTS, read-out: Cherry-picked Hit (Suppl. Table 7)
[17] = quadrant by fibrin and LPS inhibition in HTS of 1907 compounds
[18] = Table 3, read-out: LPS IC50 (uM) (Suppl. Table 7)
[19] = Table 6, read-out: LPS IC50 (uM) (Suppl. Table 7)
[20] = Table 3, read-out: Fibrin IC50 (uM) (Suppl. Table 7)
[21] = Table 6, read-out: Fibrin IC50 (uM) (Suppl. Table 7)
[22] = Microglia, Table 3, read-out: Cherry-picked Hit (Suppl. Table 7)

| SMILES | IC50 [1, 8] | inhibition at 10 µM ([1]; 48 h) | IC50 [1, 9] | IC50 [1, 10] | IC50 (in vitro [2]; cFib assay) | Fibrin % cell toxicity (primary rat microglia [3]) | LPS % cell toxicity (primary rat microglia [4]) | IC50 (in vitro [5]) | IC50 [6, 11] | IC50 [6, 12] | IC50 [6, 13] | inhibition at 10 µM [6] | Quadrant (FIG. 5b) [7, 14] | inhibition at 10 µM [7, 15] | Quadrant (FIG. 5b) ([7]; Table 1, screen at 10 μM) | Quadrant (FIG. 5b) [7, 17] | IC50 (in vitro [2]; Table 3) | IC50 (primary rat microglia [4]) | inhibition at 10 µM [7, 22] | Quadrant (FIG. 5b) ([7]; Table 3, screen at 10 μM) | further results |
| --- | --- | --- | --- | --- | --- | --- | --- | --- | --- | --- | --- | --- | --- | --- | --- | --- | --- | --- | --- | --- | --- |
| CC(=O)O[C@H]1C[C@@]2(C)[C@@H](C[C@@H](O)[C@H]3[C@@]4(C)CC[C@@H](O)[C@@H](C)[C@@H]4CC[C@@]32C)/C1=C(\CCC=C(C)C)C(=O)O [Fusidic acid, reference compound] | > 20 µM | 74% | > 20 µM | > 20 µM | > 20 µM | 1% | 2% | > 20 µM | 19 µM | 19 µM | 19 µM | 77% | Q2 | > 50% | Q2 | Q2 | – | – | – | – | inhibition at 10 µM [7, 16]: > 50% |
| CCCC(=O)O[C@]1(C(=O)CO)CC[C@H]2[C@@H]3CCC4=CC(=O)CC[C@]4(C)[C@H]3[C@@H](O)C[C@@]21C [Hydrocortisone butyrate, reference compound] | 2 µM | 78% | 2 µM | 2 µM | > 20 µM | 2% | 2% | > 20 µM | 0.02 µM | 0.02 µM | 0.02 µM | 108% | Q2 | > 50% | Q2 | Q2 | > 20 µM | > 20 µM | > 50% | Q2 | IC50 [1, 18]: 2 µM; IC50 [1, 19]: 2 µM; IC50 ([1]; Table 7, read-out: LPS_IC50): 0.005 µM; IC50 (in vitro [2]; cFib assay, Table 6): > 20 µM; IC50 (primary rat microglia [4]; Table 6): > 20 µM; Fibrin Selectivity [6]: 89; Fibrin Selectivity (LOG10) [6]: 1.95; IC50 [6, 20]: 0.02 µM; IC50 [6, 21]: 0.02 µM; IC50 ([6]; Table 7, read-out: fib_IC50): 0.071 µM; Quadrant (FIG. 5b) ([7]; Table 2, screen at 10 μM): Q2; Activity [7]: fib/LPS; Quadrant (FIG. 5b) ([7]; microglia HTS, Table 6): Q2 |
| CCCCC(=O)O[C@]1(C(=O)CO)CC[C@H]2[C@@H]3CCC4=CC(=O)CC[C@]4(C)[C@H]3[C@@H](O)C[C@@]21C [Hydrocortisone valerate, reference compound] | 1 µM | 73% | 1 µM | 1 µM | > 20 µM | 1% | 1% | > 20 µM | 0.05 µM | 0.05 µM | 0.05 µM | 95% | Q2 | > 50% | Q2 | Q2 | > 20 µM | > 20 µM | > 50% | Q2 | IC50 [1, 18]: 1 µM; Fibrin Selectivity [6]: 28; Fibrin Selectivity (LOG10) [6]: 1.45; IC50 [6, 20]: 0.05 µM |
| C[C@]12CCC(=O)C=C1CC[C@@H]1[C@@H]2[C@@H](O)C[C@@]2(C)[C@H]1CC[C@]2(O)C(=O)CO [Hydrocortisone, reference compound] | – | – | – | – | > 20 µM | 2% and 4% | 2% and 1% and 5% | > 20 µM | – | – | – | 104% | Q2 | > 50% | Q2 | Q2 | > 20 µM | > 20 µM | > 50% | Q2 | IC50 [1, 19]: 18 µM; IC50 ([1]; Table 7, read-out: LPS_IC50): 0.002 µM; IC50 (in vitro [2]; cFib assay, Table 6): > 20 µM; IC50 (primary rat microglia [4]; Table 6): > 20 µM; IC50 [6, 21]: 0.03 µM; IC50 ([6]; Table 7, read-out: fib_IC50): 0.018 µM; Quadrant (FIG. 5b) ([7]; Table 2, screen at 10 μM): Q2; Activity [7]: fib/LPS; Quadrant (FIG. 5b) ([7]; microglia HTS, Table 6): Q2 |
| CC(C)C(=O)c1c(C(C)C)nn2ccccc12 [Ibudilast, reference compound] | > 20 µM | 57% | > 20 µM | > 20 µM | > 20 µM | 1% | 1% | > 20 µM | > 20 µM | > 20 µM | > 20 µM | 75% | Q2 | > 50% | Q2 | Q2 | – | – | – | – | inhibition at 10 µM [7, 16]: > 50% |
